From patent publication US20120214760A1, “TREATMENT OF URINARY TRACT INFECTIONS WITH ANTIBACTERIAL AMINOGLYCOSIDE COMPOUNDS” (Achaogen, Inc., priority 2009, published 2012)
In brackets after ≈: the same amount, converted by molar mass. Like-named read-outs stand apart in the source and are kept apart here.

What was measured:
Type in all cases: cell-based
[1] = tested on: Citrobacter spp. (15); test: MIC, urinary tract infection isolates
Procedure: (§1) Minimum inhibitory concentrations (MIC) were determined by reference Clinical and Laboratory Standards Institute (CLSI) broth microdilution methods per M7-A7 [2006]. Quality control ranges utilizing E. coli ATCC 25922, P. aeruginosa ATCC 27853 and S. aureus ATCC 29213, and interpretive criteria for comparator agents were as published in CLSI M100-S17 [2007]. Briefly, serial two-fold dilutions of the test compounds were prepared at 2× concentration in Mueller Hinton Broth. The compound dilutions were mixed in 96-well assay plates in a 1:1 ratio with bacterial inoculum. The inoculum was prepared by suspension of a colony from an agar plate that was prepared the previous day. Bacteria were suspended in sterile saline and added to each assay plate to obtain a final concentration of 5×10^5 CFU/mL. The plates were incubated at 35° C. for 20 hours in ambient air.
(§2) In order to determine the activity of representative antibacterial aminoglycoside compounds against bacterial species that commonly cause complicated urinary tract infections worldwide, isolates were collected from 47 medical centers in the U.S. and Europe (10 countries) from urine or blood culture with the source of bacteremia documented as a urinary tract infection. Strains were susceptibility tested against Example 1, gentamicin, amikacin and 10 comparators by CLSI broth microdilution. These MIC assays were conducted following the same protocol as set forth in Example 110. Pathogens (169 in total) included E. coli, Klebsiella spp., Enterobacter spp., Citrobacter spp., P. mirabilis, M. Morganii, P. aeruginosa, S. aureus and S. saprophyticus.

[2] = tested on: E. coli (21); test: MIC, urinary tract infection isolates
Procedure: as §1, §2

[3] = tested on: Enterobacter spp. (16); test: MIC, urinary tract infection isolates
Procedure: as §1, §2

[4] = tested on: Klebsiella spp. (21); test: MIC, urinary tract infection isolates
Procedure: as §1, §2

[5] = tested on: M. morganii (15); test: MIC, urinary tract infection isolates
Procedure: as §1, §2

[6] = tested on: P. aeruginosa (19); test: MIC, urinary tract infection isolates; settings: P. aeruginosa
Procedure: as §1, §2

[7] = tested on: P. mirabilis (20); test: MIC, urinary tract infection isolates
Procedure: as §1, §2

[8] = tested on: S. aureus (23); test: MIC, urinary tract infection isolates; settings: S. aureus
Procedure: as §1, §2

[9] = tested on: S. saprophyticus (19); test: MIC, urinary tract infection isolates; settings: S. saprophyticus
Procedure: as §1, §2

[10] = tested on: E. coli ATCC 25922 (AECO001); test: MIC, CLSI broth microdilution; settings: Escherichia coli, ATCC25922; Table 5; E. coli Susceptible ATCC 25922
In short: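 CLSI M7-A7 broth microdilution in Mueller Hinton Broth using two-fold compound serial dilutions. Inoculum was prepared from the previous day's agar colonies at a final 5×10^5 CFU/mL. Plates were incubated at 35° C for 20 hours in ambient air.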

[11] = tested on: E. coli AECO 1003, MDR; test: MIC of thigh model strain; settings: Escherichia coli
Procedure: as §1

[12] = tested on: K. pneumoniae AKPN 1073, MDR; test: MIC of thigh model strain; settings: Klebsiella pneumoniae; Table 5; K. pneumoniae MDR AKPN 1073
Procedure: as §1

[13] = tested on: K. pneumoniae AKPN 1109, KPC; test: MIC of thigh model strain; settings: Klebsiella pneumoniae; Table 5; K. pneumoniae KPC AKPN 1109
Procedure: as §1

[14] = tested on: K. pneumoniae ATCC 43816, Susceptible; test: MIC of thigh model strain; settings: Klebsiella pneumoniae, ATCC43816; Table 5; K. pneumoniae Susceptible ATCC 43816
Procedure: as §1

[15] = tested on: S. aureus ATCC 33591, MRSA; test: MIC of thigh model strain; settings: Staphylococcus aureus
Procedure: as §1

[16] = tested on: S. marcescens ASMA 1030, KPC; test: MIC of thigh model strain; settings: Serratia marcescens; Table 5; S. marcescens KPC ASMA 1030
Procedure: as §1

[17] = tested on: Staphylococcal isolates; test: Susceptibility testing, urinary tract infection isolates
Procedure: as §1
In order to determine the activity of representative antibacterial aminoglycoside compounds against bacterial species that commonly cause complicated urinary tract infections worldwide, isolates were collected from 47 medical centers in the U.S. and Europe (10 countries) from urine or blood culture with the source of bacteremia documented as a urinary tract infection. Strains were susceptibility tested against Example 1, gentamicin, amikacin and 10 comparators by CLSI broth microdilution. […]

SMILES: CN[C@@H]1[C@@H](O)[C@@H](O[C@@H]2[C@@H](O)[C@H](O[C@H]3OC(CNCCO)=CC[C@H]3N)[C@@H](N)C[C@H]2NC(=O)[C@@H](O)CCN)OC[C@]1(C)O.O=S(=O)(O)O [ACHN-490]
- Cumulative % inhibited at ACHN-490 MIC ([1]; at 0.5 μg/ml): 73.3%
- Cumulative % inhibited at ACHN-490 MIC ([1]; at 1 μg/ml): 86.7%
- Cumulative % inhibited at ACHN-490 MIC ([1]; at 2 μg/ml): 93.3%
- Cumulative % inhibited at ACHN-490 MIC ([1]; at 4 μg/ml): 100.0%
- Cumulative % inhibited at ACHN-490 MIC ([1]; at ≦0.25 μg/ml): 0.0%
- Cumulative % inhibited at ACHN-490 MIC ([2]; at 0.5 μg/ml): 19.0%
- Cumulative % inhibited at ACHN-490 MIC ([2]; at 1 μg/ml): 61.9%
- Cumulative % inhibited at ACHN-490 MIC ([2]; at 2 μg/ml): 100.0%
- Cumulative % inhibited at ACHN-490 MIC ([2]; at ≦0.25 μg/ml): 0.0%
- Cumulative % inhibited at ACHN-490 MIC ([3]; at 0.5 μg/ml): 75.0%
- Cumulative % inhibited at ACHN-490 MIC ([3]; at 1 μg/ml): 100.0%
- Cumulative % inhibited at ACHN-490 MIC ([3]; at ≦0.25 μg/ml): 0.0%
- Cumulative % inhibited at ACHN-490 MIC ([4]; at 0.5 μg/ml): 95.2%
- Cumulative % inhibited at ACHN-490 MIC ([4]; at 1 μg/ml): 100.0%
- Cumulative % inhibited at ACHN-490 MIC ([4]; at ≦0.25 μg/ml): 19.0%
- Cumulative % inhibited at ACHN-490 MIC ([5]; at 0.5 μg/ml): 0.0%
- Cumulative % inhibited at ACHN-490 MIC ([5]; at 1 μg/ml): 6.7%
- Cumulative % inhibited at ACHN-490 MIC ([5]; at 2 μg/ml): 60.0%
- Cumulative % inhibited at ACHN-490 MIC ([5]; at 4 μg/ml): 86.7%
- Cumulative % inhibited at ACHN-490 MIC ([5]; at 8 μg/ml): 100.0%
- Cumulative % inhibited at ACHN-490 MIC ([5]; at ≦0.25 μg/ml): 0.0%
- Cumulative % inhibited at ACHN-490 MIC ([6]; at 0.5 μg/ml): 0.0%
- Cumulative % inhibited at ACHN-490 MIC ([6]; at 1 μg/ml): 0.0%
- Cumulative % inhibited at ACHN-490 MIC ([6]; at 2 μg/ml): 0.0%
- Cumulative % inhibited at ACHN-490 MIC ([6]; at 4 μg/ml): 36.8%
- Cumulative % inhibited at ACHN-490 MIC ([6]; at 8 μg/ml): 73.7%
- Cumulative % inhibited at ACHN-490 MIC ([6]; at 16 μg/ml): 89.5%
- Cumulative % inhibited at ACHN-490 MIC ([6]; at 32 μg/ml): 100.0%
- Cumulative % inhibited at ACHN-490 MIC ([6]; at ≦0.25 μg/ml): 0.0%
- Cumulative % inhibited at ACHN-490 MIC ([7]; at 0.5 μg/ml): 0.0%
- Cumulative % inhibited at ACHN-490 MIC ([7]; at 1 μg/ml): 5.0%
- Cumulative % inhibited at ACHN-490 MIC ([7]; at 2 μg/ml): 45.0%
- Cumulative % inhibited at ACHN-490 MIC ([7]; at 4 μg/ml): 90.0%
- Cumulative % inhibited at ACHN-490 MIC ([7]; at 8 μg/ml): 95.0%
- Cumulative % inhibited at ACHN-490 MIC ([7]; at 16 μg/ml): 100.0%
- Cumulative % inhibited at ACHN-490 MIC ([7]; at ≦0.25 μg/ml): 0.0%
- Cumulative % inhibited at ACHN-490 MIC ([8]; at 0.5 μg/ml): 13.0%
- Cumulative % inhibited at ACHN-490 MIC ([8]; at 1 μg/ml): 60.9%
- Cumulative % inhibited at ACHN-490 MIC ([8]; at 2 μg/ml): 95.7%
- Cumulative % inhibited at ACHN-490 MIC ([8]; at 4 μg/ml): 100.0%
- Cumulative % inhibited at ACHN-490 MIC ([8]; at ≦0.25 μg/ml): 0.0%
- Cumulative % inhibited at ACHN-490 MIC ([9]; at 0.5 μg/ml): 94.7%
- Cumulative % inhibited at ACHN-490 MIC ([9]; at 1 μg/ml): 100.0%
- Cumulative % inhibited at ACHN-490 MIC ([9]; at ≦0.25 μg/ml): 89.5%

SMILES: C[C@@H](O)[C@H]1C(=O)N2C(C(=O)O)=C(SCCN=CN)C[C@H]12 [IMP, imipenem, reference compound]
- MIC [10]: 0.125 µg/mL (≈ 0.418 µM)
- MIC [11]: 0.125 µg/mL
- MIC [12]: 0.25 µg/mL
- MIC [13]: 32 µg/mL
- MIC [14]: 0.5 µg/mL
- MIC ([15]; Table 5, S. aureus MRSA ATCC 33591, read-out: MIC): > 16 µg/mL
- MIC [16]: > 32 µg/mL

SMILES: CN[C@H](CC(C)C)C(=O)N[C@H]1C(=O)N[C@@H](CC(N)=O)C(=O)N[C@H]2C(=O)N[C@H]3C(=O)N[C@H](C(=O)N[C@H](C(=O)O)c4cc(O)cc(O)c4-c4cc3ccc4O)[C@H](O)c3ccc(c(Cl)c3)Oc3cc2cc(c3O[C@@H]2O[C@H](CO)[C@@H](O)[C@H](O)[C@H]2O[C@H]2C[C@](C)(N)[C@H](O)[C@H](C)O2)Oc2ccc(cc2Cl)[C@H]1O [VAN, vancomycin]
- MIC [15]: 1 µg/mL

SMILES: O=C1CN(/N=C/c2ccc([N+](=O)[O-])o2)C(=O)N1 [nitrofurantoin]
- Staphylococcal susceptibility rate [17]: 33.3%
